Patent publication US7062219B2, “Protein fragment complementation assays for high-throughput and high-content screening” (Odyssey Thera Inc., priority 1997, dated 2006)
Non-standard residues stand in square brackets, D forms with d. Residues, ends and D or L forms follow the SMILES beside them. Nle = CCCC[C@H](N)C(=O)O

Key:
p50/p65 complex = assay: stable HEK293T p50/p65 YFP PCA cell line, nuclear translocation (N:C ratio); format: cell-based
Experimental: Stable cell lines represent the gold standard for HTS since the assays can be reconstructed at any time from frozen stocks of cells. […] First, cells were co-transfected with YFP[2]-p65 encoding vectors, and stable cell lines were selected using 100 micrograms/ml of Hygromycin B (Invitrogen). Selected cell lines were then transfected with YFP[1]-p50. Stable cell lines expressing YFP[1]-p50/YFP[2]-p65 were isolated following double antibiotic selection with 50 μg/ml Hygromycin B and 500 μg/ml Zeocin. Cell clones stably expressing the fusion genes were identified by immunoblot analysis and fluorescence microscopy. A single cell line of each transfectant was selected for further characterization. Fluorescence of these lines is stable over at least 25 passages (data not shown). A stable, MEK/ERK cell line—constructed as described below—was used as a control for TNF effects. Fugene 6 (Roche) was used for all the transfections according to manufacturer's directions. Cells stably expressing YFP[1]-p50/YFP[2]-p65 were seeded at 20,000 cells/well in black-walled poly-lysine coated 96 well plate (Greiner). Twenty-four hours later, the cells were incubated with human TNF-alpha (Roche) for 30 min. Nuclei were stained with Hoechst 33342 (Molecular Probes) at 10 micrograms/ml for 10 min. Cells were rinsed with HBSS (Invitrogen) and kept in the same buffer. Fluorescence was visualized and images were acquired using a Discovery-1 automated fluorescence imager (Molecular Devices, Inc.) equipped with excitation and emission filters 470/35 and 535/60, respectively. […] For the high throughput screening campaign described below, cells were pretreated with compounds (10 micromolar) for 60 minutes and then stimulated with TNFalpha for 30 minutes in the presence of drugs. Cells were then fixed with 2% formaldehyde in HBSS and subsequently stained with Hoechst 33342. All liquid handling was done using a Biomek FX (Beckman) instrument and images were acquired as described above. Images were analyzed using Image J. Translocation is assessed by calculating the nuclear/cytoplasmic ratio of the mean fluorescence intensity for a population of cells (denoted as n) over several images for a given condition.
Genesis Plus is a collection of 960 diverse compounds, and includes compounds with known toxicity or fluorescent properties. Inclusion of compounds with such properties is important in HTS assay validation, as they might complicate analysis. The final concentration of compounds in wells was 10 micromolar, and all wells contained 0.5% DMSO concentration. […] Following fixation and staining of nuclei, fluorescence was analyzed on the automated fluorescent microscopy platform (Discovery 1; Universal Imaging/Molecular Devices Corp.). […]

IkBa/p65 complex = assay: stable cell line IkBa/p65 YFP PCA, mean fluorescence intensity; format: cell-based
Source text: TNF-induced degradation of IkBa, which is a consequence of ubiquitination and proteasomal degradation, frees bound NFkB and results in translocation of that transcription factor into the nucleus. Thus, disassembly of the IkBa-NFkB complex is a key step in NFkB-mediated gene regulation. To visualize regulation of the NFkB pathway at this level, we engineered a stable cell line expressing an IkBa/p65 PCA (FIG. 14). ERK1/MEK1 was used as a control. ERK1 was ligated to the 5′ end of YFP[1] while IkBa and MEK1 were appended to YFP[2] in N-terminal fusions. […]
Cells expressing IkBa-YFP[1]/YFP[2]-p65 or the controls, MEK-YFP[2]/ERK1-YFP[1], were seeded at 20,000 cells/well in black-walled poly-lysine coated 96 well plate (Greiner). […] Fluorescence was visualized and images were acquired using a Discovery-1 automated fluorescence imager (Molecular Devices, Inc.) equipped with excitation and emission filters 470/35 and 535/60, respectively. […]
Images were analyzed using Image J. Total mean fluorescence intensity for all cells was assessed by adding weighted mean fluorescence intensities for the nucleus and cytoplasm for individual cells in the population for a given condition +/− standard error. […] There was no effect of TNF treatment on the fluorescence intensity of the control (MEK/ERK) PCA.

CCCC[C@@H](C=O)NC(=O)[C@H](CC(C)C)NC(=O)[C@H](CC(C)C)NC(C)=O [ALLN] (Ac-Leu-Leu-[Nle]-aldehyde)
block of TNF-induced increases in the N:C ratio of p50/p65 complexes (p50/p65 complex; ALLN treatment for 4 hr): 76% | effect on the TNF response in the stable p65/p50 PCA cell line (in words) (p50/p65 complex; FIG. 12(B)): inhibition of the TNF response | inhibition of the TNF-induced reduction of IkBa/p65 complexes (IkBa/p65 complex; ALLN treatment for 4 hr): 98% | effect on TNF-induced reduction in IkBa/p65 signal (in words) (IkBa/p65 complex; FIG. 14): blocked
